Data published in US4014909A, “Esters of 21-thiol steroids” (priority 1974, dated 1977).
Like-named read-outs stand apart in the source and are kept apart here.

Assays:
thymus = assay type: in vivo, rat (Wistar, young male)
Protocol: The thymolytic effects have been examined by means of a test, the principle of which is as follows:
The repeated administration of a gluco-corticoid having a systemic activity causes an involution of the defence system of the organism, of which two organs belong to the reticulo-endothelial system, the spleen and the thymus, this latter being the most sensitive to this action, especially with young animals. The thymic involution is estimated by weighing.
The various products were injected daily by the oral or the sub-cutaneous route for four days, to young male rats of Wistar-strain, the initial weight of which was between 45 and 55 grams, distributed at random by groups of ten.
The products under study were administered at a volume of 0.2 ml. per animal for both methods, in suspension in:
Carboxy-methyl-cellulose at 5 % for sub-cutaneous injection;
Gum arabic at 5 % for the oral route.
The animals of the reference groups received the same volume of the corresponding vehicle.
Ninety-six hours after the first administration, the animals were killed, the thymus glands being taken and weighed immediately.
(§1) For each animal, the weight of the thymus has been brought to 100 grams of body weight. The thymolytic activity of the products under study was then expressed as a percentage of regression of the thymus with respect to the animals of the reference group and the ED50 of each product tested was estimated by transferring the percentage inhibition obtained for each dose on semi-logarithmic paper.

granuloma / thymus = test: Ratio of the local anti-inflammatory activity to the thymolytic activity; assay type: in vivo, rat (Wistar); settings: for ED50 anti-proliferative activity / ED50 thymolytic activity (sub-cutaneous route): thymolytic activity determined by sub-cutaneous route; for ED50 anti-proliferative activity / ED50 thymolytic activity (oral route): thymolytic activity determined by the oral route
Protocol: The DE50 were calculated by transferring the results on to semi-logarithmic paper.
as §1
The ratio is indicated in Tables VII, VIII and IX which follow: […]

[1] = tested on: exudate in carrageenan air pouch; test: Anti-exudative action, carrageenan air pouch; assay type: in vivo, rat (Wistar, male); settings: injected into the air pouch 96 h after carrageenan; exudate measured 96 h later
Protocol: The anti-exudative activity was brought into evidence by means of a test, the principle of which is as follows.
This test consists of creating, under the dorsal skin of the rat an air pouch in which an irritant product is injected. An inflammatory reaction appears rapidly and is shown by the accumulation of liquid in the pouch of air.
The introduction of an anti-inflammatory product into the air pouch reduced, more or less completely, the accumulation of exudate.
This study was carried out with male rats of the Wistar strain, the initial weight of which was between 160 and 180 grams, following the technique described by M. Fukuhara and S. Tsurufuji (Bio-Chem. Pharmac. 18, 475-484, 1969). Each lot comprised 10 animals distributed at random.
Twenty-four hours before the beginning of the test, each animal received a sub-cutaneous injection of 6 ml. of air in the dorsal region, previously shaved. […]
Ninety-six hours after this last injection, the animals were killed and the exudate contained in the pouch was collected through a small incision made with a scalpel, and its volume was measured in a test tube.
The difference in volume of the exudate between the animals treated and the reference lot was expressed as a percentage inhibition.

hepatic tissue = test: Action on the glucidic metabolism: hepatic glycogen after 96 hours treatment; assay type: in vivo, rat (Wistar, male); settings: 18 h water diet
Text: The action on the glucidic metabolism was investigated by means of a test, the principle of which is as follows:
Gluco-corticoid reduce the peripheral needs of the organism in glucose, they also increase the synthesis by the liver of glycogen (neo-glycogenesis). Their action on the glucidic metabolism is thus indicated:
(1) By an increase of glycemia;
(2) by a glycogenic overload on the liver and especially by the persistence of the hepatic shock of glycogen in the food-deprived animal, and treated with a glyco-corticoid by comparison with the non-treated animal.
For this study, Wistar male rats were used; the initial weight of which was between 150 and 160 grams, distributed at random in groups of 10.
The products studied were administered by the oral route in suspension in 5 % gum arabic, under a volume of 0.5 ml. per 100 grams, the animals of the reference group receiving the same volume of vehicles under the same condition.
The treatments were carried out daily for four days, a fifth administration being given seven hours before killing the animals, which took place 96 hours after the first administration.
Immediately after killing the animals, a sample of the hepatic tissue was taken from the central lobe and weighed. Immediately afterwards, it was subjected to digestion in 30 % potassium hydroxide in a boiling water-bath for 20 minutes. The glycogen contained in the digestate was then dosed, following the technique described by R. O. Stafford, L. E. Barnes and Coll. (Proc. Soc. Exp. Med. 39/3, 371-374, 1955).
The content of glycogen in the liver samples has been expressed in grams of glycogen per 100 grams of hepatic tissue.
Table XIII which follows indicates the content of glycogen in the liver with the reference animals and the treated animals for 96 hours after a water diet of 18 hours (see procedure (e)).

[2] = Action on the hydro-mineral metabolism: sodium excretion, 96 hours treatment; assay type: in vivo, rat (Wistar, male); settings: for Sodium excreted, average ± standard error: 96 hours treatment, 5 h urine
Text: The action on the hydro-mineral metabolism was examined by means of a test, the principle of which is as follows:
The gluco-corticoids are not all free from mineral-corticoid effects (for example hydro-cortisone). These latter are indicated by:
A reduced renal elimination of sodium (sodium retention);
a loss of potassium (potassium leakage), these two effects reproducing the action of aldosteron.
This study has been carried out on male Wistar rats having weights between 180 and 190 grams.
The animals were distributed at random in groups of ten.
The products under study were administered by the oral route in suspension in 5 % gum arabic. The animals of the reference group received the same volume of vehicle under the same conditions.
The treatments were carried out daily for 4 days.
The renal functional exploratory test was effected […] after the first administration of the product tested.
Eighteen hours before the test, the animals were completely deprived of food and water, this being subsequently maintained up to the end of the test.
Immediately before the renal functional test, the animals received an overdose by the oral route of physiological solution equal to 5 % by volume of their body weight.
The urine passed during five hours was collected for each animal in a polyethylene tube.
The concentration of sodium was determined in each sample by flame photometry; the total quantitt excreted was then calculated as a function of the corresponding volume of urine. The values obtained for each group were then compared following the Fisher Student method with the quantity of sodium excreted by the animals of the reference group.
The results obtained with hydro-cortisone acetate and the JO 1016 in the case of a treatment lasting 96 hours following the procedure (f) are indicated in the following Table XVI.

SMILES | ED50 thymolytic activity, sub-cutaneous route (thymus; rat, in vivo, 5760 min) [mg] | ED50 thymolytic activity, oral route (thymus; rat, in vivo, po, 5760 min) [mg] | ED50 anti-proliferative activity / ED50 thymolytic activity (sub-cutaneous route) (granuloma / thymus) | ED50 anti-proliferative activity / ED50 thymolytic activity (oral route) (granuloma / thymus) | ED50 anti-exudatory activity [1] | Glycogen in hepatic tissue (hepatic tissue; 2 mg/kg oral) [g/100 g] | Glycogen in hepatic tissue (hepatic tissue; 5 mg/kg oral) [g/100 g] | Glycogen in hepatic tissue (hepatic tissue; 10 mg/kg oral) [g/100 g] | Glycogen in hepatic tissue (hepatic tissue; 20 mg/kg oral) [g/100 g] | Glycogen in hepatic tissue (hepatic tissue; 50 mg/kg oral) [g/100 g] | Sodium excreted, average ± standard error ([2]; 16 mg/kg oral) | ED50 thymolytic activity, oral route (thymus; oral, total dose administered during four days per rat of about 50 g) [mg] | ED50 thymolytic activity, sub-cutaneous route (thymus; sub-cutaneous, total dose administered during four days per rat of about 50 g) [mg] | Glycogen in hepatic tissue (hepatic tissue; 25 mg/kg oral) [g/100 g] | Glycogen in hepatic tissue (hepatic tissue; 100 mg/kg oral) [g/100 g] | Sodium excreted, percentage of variation ([2]; 16 mg/kg oral, 96 hours, hydrocortisone acetate 0,001 < p < 0,01, JO 1016 N.S.) | Sodium excreted, average ± standard error ([2]; 32 mg/kg oral) [Meq] | Sodium excreted, average ± standard error ([2]; 80 mg/kg oral) [Meq] | Sodium excreted, average ± standard error ([2]; 160 mg/kg oral) [Meq]
CC(=O)OCC(=O)[C@@]1(O)CC[C@H]2[C@@H]3CCC4=CC(=O)CC[C@]4(C)[C@H]3[C@@H](O)C[C@@]21C [Hydrocortisone (acetate), Hydrocortisone acetate, reference compound] | 0.68 | 4 | 1.2 | 0.25 | 1,5 mg | 0.19 | 0.45 | 0.46 | 1.26 | 2.49 | 0,371 ± 0,0827 Meq | – | – | – | – | – | – | – | –
CC(C)(C)C(=O)SCC(=O)[C@@]1(O)CC[C@H]2[C@@H]3CCC4=CC(=O)CC[C@]4(C)[C@H]3[C@@H](O)C[C@@]21C [JO 1016, Dihydroxy-11β, 17α thio-21 dioxo-3,20 pregnene-4-21 pivalate] | – | – | 0.0008 | < 0.003 | 1.5 mg | – | – | – | – | 0.39 | 0.820 ± 0.1040 Meq | 400 | > 120 | 0.25 | 0.42 | 0,4% | 0.754 ± 0.0465 | 0.684 ± 0.1591 | 0.664 ± 0.0484
